Measured values reported in ChEMBL document CHEMBL4813985, “Lead optimization generates selenium-containing miconazole CYP51 inhibitors with improved pharmacological profile for the treatment of fungal infections” (Eur J Med Chem, 2021).
Converted amounts (≈) assume the structure as drawn.

What was measured:
Candida albicans [1] = assay: Antifungal activity against Candida albicans CPCC400616 measured after 24 hrs by broth microdilution assay; assay type: functional
Candida albicans [2] = assay: Antifungal activity against Candida albicans ATCC SC5314 measured after 24 hrs by broth microdilution assay; assay type: functional
[Candida] zeylanoides = Antifungal activity against Candida zeylanoides CMGCC2.3739 measured after 24 hrs by broth microdilution assay; assay type: functional; settings: Dujonia zeylanoides
Cryptococcus neoformans = assay: Antifungal activity against Cryptococcus neoformans CMGCC2.3161 measured after 72 hrs by broth microdilution assay; assay type: functional
Nakaseomyces glabratus = assay: Antifungal activity against Candida glabrata measured after 24 hrs by broth microdilution assay; assay type: functional
Candida parapsilosis = assay: Antifungal activity against Candida parapsilosis ATCC 22019 measured after 24 hrs by broth microdilution assay; assay type: functional; settings: Lodderomyces parapsilosis
Aspergillus fumigatus = assay: Antifungal activity against Aspergillus fumigatus CMGCC3.7795 measured after 72 hrs by broth microdilution assay; assay type: functional
HL-60 = assay: Cytotoxicity against human HL-60 cells assessed as reduction in cell viability incubated for 96 hrs by MTT assay; assay type: cell-based; settings: HL-60, 96 h
PC-3 = assay: Cytotoxicity against human PC3 cells assessed as reduction in cell viability incubated for 96 hrs by MTT assay; assay type: cell-based; settings: PC-3, 96 h, read-out: IC50
[3] = Hemolytic activity in rabbit RBC assessed as hemolysis ratio at 2 ug/ml measured after 3 hrs by microplate reader assay relative to control; assay type: ADME, cell-based, Oryctolagus cuniculus, Erythrocyte; settings: rabbit red blood cells (erythrocytes), at 2 µg/mL, read-out: Activity
[4] = Hemolytic activity in rabbit RBC assessed as hemolysis ratio at 4 ug/ml measured after 3 hrs by microplate reader assay relative to control; assay type: ADME, cell-based, Oryctolagus cuniculus, Erythrocyte; settings: rabbit red blood cells (erythrocytes), at 4 µg/mL, read-out: Activity
[5] = Hemolytic activity in rabbit RBC assessed as hemolysis ratio at 8 ug/ml measured after 3 hrs by microplate reader assay relative to control; assay type: ADME, cell-based, Oryctolagus cuniculus, Erythrocyte; settings: rabbit red blood cells (erythrocytes), at 8 µg/mL, read-out: Activity
[6] = Hemolytic activity in rabbit RBC assessed as hemolysis ratio at 16 ug/ml measured after 3 hrs by microplate reader assay relative to control; assay type: ADME, cell-based, Oryctolagus cuniculus, Erythrocyte; settings: rabbit red blood cells (erythrocytes), at 16 µg/mL, read-out: Activity
[7] = Metabolic stability in mouse liver microsomes assessed as half life; assay type: ADME, Microsome
[8] = Metabolic stability in mouse liver microsomes assessed as clearance; assay type: ADME, Microsome; settings: read-out: CLH
Candida albicans [9] = assay: Fungicidal activity against Candida albicans CPCC400616 assessed as fungal killing incubated for 48 hrs followed by culturing on PDA plate for 24 hrs; assay type: functional; settings: time 72 hrs
[10] = target: T1, Lanosterol 14-alpha demethylase (Candida albicans (strain SC5314 / ATCC MYA-2876) (Yeast), UniProt P10613); assay: Inhibition of CYP51 in Candida albicans ATCC SC5314 assessed as ergosterol level at […] ug/ml after 16 hrs by GC-MS analysis (reference value: 98.3%); parameters: scale not given: the % may be the effect or the level left; settings: candida albicans sc5314, 16 h, dose 0.125 µg/ml
T1 sequence (P10613 whole entry): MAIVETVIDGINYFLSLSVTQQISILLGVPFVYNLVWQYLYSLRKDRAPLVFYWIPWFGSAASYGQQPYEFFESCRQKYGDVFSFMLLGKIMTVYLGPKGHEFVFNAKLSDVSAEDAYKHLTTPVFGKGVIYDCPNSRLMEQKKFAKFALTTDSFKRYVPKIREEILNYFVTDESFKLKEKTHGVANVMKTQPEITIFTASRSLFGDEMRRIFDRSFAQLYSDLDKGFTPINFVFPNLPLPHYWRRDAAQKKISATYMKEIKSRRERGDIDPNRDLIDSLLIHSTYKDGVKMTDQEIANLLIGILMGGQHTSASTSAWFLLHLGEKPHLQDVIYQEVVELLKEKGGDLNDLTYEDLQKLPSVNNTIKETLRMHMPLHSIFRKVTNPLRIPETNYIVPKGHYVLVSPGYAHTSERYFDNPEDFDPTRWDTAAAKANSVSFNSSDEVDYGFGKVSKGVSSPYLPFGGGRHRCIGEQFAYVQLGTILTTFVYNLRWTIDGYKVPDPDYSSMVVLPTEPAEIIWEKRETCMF

[11] = target: T1, Lanosterol 14-alpha demethylase; assay: Inhibition of CYP51 in Candida albicans ATCC SC5314 assessed as ergosterol level at 0.5 ug/ml after 16 hrs by GC-MS analysis (reference value: 98.3%); parameters: scale not given: the % may be the effect or the level left; settings: candida albicans sc5314, 16 h, at 0.5 µg/mL
[12] = target: T1, Lanosterol 14-alpha demethylase; assay: Inhibition of CYP51 in Candida albicans ATCC SC5314 assessed as ergosterol level at 2 ug/ml after 16 hrs by GC-MS analysis (reference value: 98.3%); parameters: scale not given: the % may be the effect or the level left; settings: candida albicans sc5314, 16 h, at 2 µg/mL
[13] = target: T1, Lanosterol 14-alpha demethylase; assay: Inhibition of CYP51 in Candida albicans ATCC SC5314 assessed as ergosterol level at 8 ug/ml after 16 hrs by GC-MS analysis (reference value: 98.3%); parameters: scale not given: the % may be the effect or the level left; settings: candida albicans sc5314, 16 h, at 8 µg/mL
[14] = target: T1, Lanosterol 14-alpha demethylase; assay: Inhibition of CYP51 in Candida albicans ATCC SC5314 assessed as Obtusifoliol level at 0.03125 ug/ml after 16 hrs by GC-MS analysis (reference value: 0%); parameters: scale not given: the % may be the effect or the level left; settings: candida albicans sc5314, 16 h, at 0.03125 µg/mL
[15] = target: T1, Lanosterol 14-alpha demethylase; assay: Inhibition of CYP51 in Candida albicans ATCC SC5314 assessed as Obtusifoliol level at […] ug/ml after 16 hrs by GC-MS analysis (reference value: 0%); parameters: scale not given: the % may be the effect or the level left; settings: candida albicans sc5314, 16 h, dose 0.125 µg/ml
[16] = target: T1, Lanosterol 14-alpha demethylase; assay: Inhibition of CYP51 in Candida albicans ATCC SC5314 assessed as Obtusifoliol level at 0.5 ug/ml after 16 hrs by GC-MS analysis (reference value: 0%); parameters: scale not given: the % may be the effect or the level left; settings: candida albicans sc5314, 16 h, at 0.5 µg/mL
[17] = target: T1, Lanosterol 14-alpha demethylase; assay: Inhibition of CYP51 in Candida albicans ATCC SC5314 assessed as Obtusifoliol level at 2 ug/ml after 16 hrs by GC-MS analysis (reference value: 0%); parameters: scale not given: the % may be the effect or the level left; settings: candida albicans sc5314, 16 h, at 2 µg/mL
[18] = target: T1, Lanosterol 14-alpha demethylase; assay: Inhibition of CYP51 in Candida albicans ATCC SC5314 assessed as Obtusifoliol level at 8 ug/ml after 16 hrs by GC-MS analysis (reference value: 0%); parameters: scale not given: the % may be the effect or the level left; settings: candida albicans sc5314, 16 h, at 8 µg/mL
[19] = target: T1, Lanosterol 14-alpha demethylase; assay: Inhibition of CYP51 in Candida albicans ATCC SC5314 assessed as lanosterol level at […] ug/ml after 16 hrs by GC-MS analysis (reference value: 1.7%); parameters: scale not given: the % may be the effect or the level left; settings: candida albicans sc5314, 16 h, dose 0.125 µg/ml
[20] = target: T1, Lanosterol 14-alpha demethylase; assay: Inhibition of CYP51 in Candida albicans ATCC SC5314 assessed as lanosterol level at 0.5 ug/ml after 16 hrs by GC-MS analysis (reference value: 1.7%); parameters: scale not given: the % may be the effect or the level left; settings: candida albicans sc5314, 16 h, at 0.5 µg/mL
[21] = target: T1, Lanosterol 14-alpha demethylase; assay: Inhibition of CYP51 in Candida albicans ATCC SC5314 assessed as lanosterol level at 2 ug/ml after 16 hrs by GC-MS analysis (reference value: 1.7%); parameters: scale not given: the % may be the effect or the level left; settings: candida albicans sc5314, 16 h, at 2 µg/mL
[22] = target: T1, Lanosterol 14-alpha demethylase; assay: Inhibition of CYP51 in Candida albicans ATCC SC5314 assessed as Eburicol level at 0.03125 ug/ml after 16 hrs by GC-MS analysis (reference value: 0%); parameters: scale not given: the % may be the effect or the level left; settings: candida albicans sc5314, 16 h, at 0.03125 µg/mL
[23] = target: T1, Lanosterol 14-alpha demethylase; assay: Inhibition of CYP51 in Candida albicans ATCC SC5314 assessed as Eburicol level at […] ug/ml after 16 hrs by GC-MS analysis (reference value: 0%); parameters: scale not given: the % may be the effect or the level left; settings: candida albicans sc5314, 16 h, dose 0.125 µg/ml
[24] = target: T1, Lanosterol 14-alpha demethylase; assay: Inhibition of CYP51 in Candida albicans ATCC SC5314 assessed as Eburicol level at 2 ug/ml after 16 hrs by GC-MS analysis (reference value: 0%); parameters: scale not given: the % may be the effect or the level left; settings: candida albicans sc5314, 16 h, at 2 µg/mL
[25] = target: T1, Lanosterol 14-alpha demethylase; assay: Inhibition of CYP51 in Candida albicans ATCC SC5314 assessed as Eburicol level at 8 ug/ml after 16 hrs by GC-MS analysis (reference value: 0%); parameters: scale not given: the % may be the effect or the level left; settings: candida albicans sc5314, 16 h, at 8 µg/mL
Candida albicans [26] = assay: Anti-biofilm activity in Candida albicans CPCC400616 assessed as inhibition of biofilm formation incubated for 24 hrs with 3 hrs precultured fungal suspension by XTT assay; assay type: functional
Candida albicans [27] = assay: Anti-biofilm activity in Candida albicans CPCC400616 assessed as inhibition of biofilm formation incubated for 24 hrs with 6 hrs precultured fungal suspension by XTT assay; assay type: functional
Candida albicans [28] = assay: Anti-biofilm activity in Candida albicans CPCC400616 assessed as inhibition of biofilm formation incubated for 24 hrs with 24 hrs precultured fungal suspension by XTT assay; assay type: functional

Row | SMILES | MIC (Candida albicans [1]) | MIC (Candida albicans [2]) | MIC ([Candida] zeylanoides) | MIC (Cryptococcus neoformans) | MIC (Nakaseomyces glabratus) | MIC (Candida parapsilosis) | MIC (Aspergillus fumigatus) | IC50 (HL-60) | IC50 (PC-3) | hemolysis at 3 h, 2 ug/ml [3] | hemolysis at 3 h, 4 ug/ml [4] | hemolysis at 3 h, 8 ug/ml [5] | hemolysis at 3 h, 16 ug/ml [6] | half-life [7] | CLint scaled [8] | MFC99 (Candida albicans [9]) | Activity [10] | Activity [11] | Activity [12] | Activity [13] | other results
1 | Clc1ccc(COC(Cn2ccnc2)c2ccc(Cl)cc2Cl)c(Cl)c1 (stereo unspecified) [MICONAZOLE] | 0.25 mg/L (≈ 0.601 µM) | 0.03 mg/L (≈ 0.0721 µM) | 1 mg/L (≈ 2.4 µM) | 0.5 mg/L (≈ 1.2 µM) | 0.5 mg/L (≈ 1.2 µM) | 0.25 mg/L (≈ 0.601 µM) | 2 mg/L (≈ 4.81 µM) | 0.8 µM | 13.4 µM | 8.55% | 81.8% | 87.3% | 94% | 8.3 min | 39.6 L/h/kg | 2 mg/L (≈ 4.81 µM) | 8.3% | 7.1% | 5.2% | 4.1% | Activity [14]: 7.2%; Activity [15]: 17.4%; Activity [16]: 9%; Activity [17]: 6.1%; Activity [18]: 7.8%; Activity [19]: 9.5%; Activity [20]: 8.9%; Activity [21]: 13.6%; Activity [22]: 70.6%; Activity [23]: 64.8%; Activity [24]: 75.2%; Activity [25]: 80.7%; MIC50 (Candida albicans [26]): 32 mg/L (≈ 76.9 µM); MIC80 (Candida albicans [26]): 128 mg/L (≈ 308 µM); MIC50 (Candida albicans [27]): > 128 mg/L; MIC80 (Candida albicans [27]): > 128 mg/L; MIC50 (Candida albicans [28]): > 128 mg/L; MIC80 (Candida albicans [28]): > 128 mg/L
2 | Fc1ccc([Se]C(Cn2ccnc2)c2ccc(F)cc2F)cc1 (stereo unspecified) | 0.25 mg/L (≈ 0.656 µM) | 0.02 mg/L (≈ 0.0525 µM) | 0.25 mg/L (≈ 0.656 µM) | 0.5 mg/L (≈ 1.31 µM) | 1 mg/L (≈ 2.62 µM) | 0.03 mg/L (≈ 0.0787 µM) | 4 mg/L (≈ 10.5 µM) | 24.8 µM | 54.4 µM | 0% | 0% | 0.33% | 100% | 19.4 min | 16.9 L/h/kg | 1 mg/L (≈ 2.62 µM) | 5.8% | 4.9% | 2.2% | 2.1% | Activity [14]: 17%; Activity [15]: 11.1%; Activity [16]: 9.9%; Activity [17]: 10.8%; Activity [18]: 10.2%; Activity [19]: 9.9%; Activity [20]: 10.1%; Activity [21]: 9%; Activity [22]: 70.2%; Activity [23]: 73.2%; Activity [24]: 78%; Activity [25]: 82%; MIC50 (Candida albicans [26]): 8 mg/L (≈ 21 µM); MIC80 (Candida albicans [26]): 16 mg/L (≈ 42 µM); MIC50 (Candida albicans [27]): 64 mg/L (≈ 168 µM); MIC80 (Candida albicans [27]): 128 mg/L (≈ 336 µM); MIC50 (Candida albicans [28]): > 128 mg/L; MIC80 (Candida albicans [28]): > 128 mg/L
